Patent publication US9512481B2, “Polymorphisms in the PDE3A gene” (The Regents of the University of Colorado, a body corporate, priority 2009, dated 2016)
One block for each compound: values may come before it.

Assays:
PDE3A promoter = experiment: PDE3A Ins or Del promoter-luciferase constructs transfected into NRVMs; format: cell-based, rat; conditions: for promoter response: Del construct with deletion of the CREB binding site (CRE) at −1070, NRVMs; for promoter (transcriptional) activity: NRVMs
PDE3A mRNA = PDE3A mRNA abundance in LVs explanted from end-stage HF patients, by PDE3A promoter Ins/Del genotype; format: in vivo, human
[1] = system: Evi-1 transcription factor mRNA; experiment: Evi-1 mRNA expression in explanted left ventricular samples from heart failure patients treated with enoximone; format: in vivo, human; conditions: explanted LV samples from HF patients treated with enoximone; compared to non-failing, no enoximone

Structure (SMILES): Nc1ncnc2c1ncn2[C@@H]1O[C@@H]2COP(=O)(O)O[C@H]2[C@H]1O [cAMP, cyclic AMP]
induction of Evi-1 (Evi-1): 16 fold

Structure (SMILES): CCCC(=O)Nc1ncnc2c1ncn2[C@@H]1O[C@@H]2COP(=O)(O)O[C@H]2[C@H]1OC(=O)CCC [dbcAMP]
promoter response (PDE3A promoter): abolishes the promoter response

promoter response (PDE3A promoter): abolishes the promoter response
Structure (SMILES): CSc1ccc(C(=O)c2[nH]c(=O)[nH]c2C)cc1 [enoximone]
PDE3A mRNA abundance (PDE3A mRNA; Del carriers (homozygous or heterozygous for PDE3A Del, n=9) treated with enoximone, compared to Del patients not receiving enoximone (n=19), p<0.001): 2.1±0.3 fold | PDE3A gene expression (PDE3A mRNA; patients homozygous for the Ins (Ins/Ins) treated with enoximone, p=0.7): 1.1±0.3 fold | mRNA expression of Evi-1 [1]: increased

promoter (transcriptional) activity (PDE3A promoter; Del PDE3A promoter-luciferase construct (lacks the 29 nucleotide sequence)): increased promoter activity | promoter (transcriptional) activity (PDE3A promoter; Ins PDE3A promoter-luciferase construct (29 nucleotide sequence present)): does not go up
Structure (SMILES): CC(C)NCC(O)c1ccc(O)c(O)c1 (centres unmarked) [isoproterenol]
